# Results: US8211941B2, “Antagonists of the transient receptor potential vanilloid 1 and uses thereof” (The Board of Regents of the University of Texas System, priority 2007, dated 2012)
# Legend:
# [1] = test system: ferrets; conditions: subcutaneous; cited from earlier work
# [2] = test system: vagal afferent nerves (TRPV1) in the stomach; experiment: Nausea and vomiting induced by balloon inflation in the jejunum, behavioral emetic score; type: in vivo, dog; conditions: dogs, one week after 250 ml of a 100 nM solution sprayed endoscopically onto gastric mucosa; baseline 26.3±4.0; p=0.01
# Experimental: (§1) Nausea and vomiting was induced using either balloon distention or intra-venous infusion of vasopressin (0.5 U/Kg infused over 20 minutes). Untreated represents control or baseline mean score of the emetic response was 26.3±4.0 and 29.0±6.2 for balloon distention and vasopressin stimuli respectively. Following, Resiniferatoxin infusion (250 ml of a 100 nM solution): the mean score with balloon distention was 11.7±4.2 (p=0.01) while the mean score with vasopressin was 16.3±5 (p=0.05).
# (§2) Four dogs with surgically created jejunocutaneous fistulae 20 cm distal to the pylorus were used in this study. Nausea and vomiting were induced using two different stimuli, both of which are vagally dependent, at least in part: (1) Balloon inflation in the jejunum (2) Intravenous vasopressin infusion (0.5 U/Kg infused over 20 minutes). Nausea was assessed using a previously validated behavioral scoring system in addition to counting actual episodes of vomiting. After baseline observations, resiniferatoxin (250 ml of a 100 nM solution) was administered endoscopically using a spray catheter to coat the mucosal lining of the stomach under general anesthesia into the stomach. One week later, the response to balloon distention and vasopressin infusion was recorded again.
# [3] = General observation of dogs after endoscopic resiniferatoxin spray; type: in vivo, dog; conditions: after endoscopic gastric spray of 250 ml of a 100 nM solution
# Experimental: as §2
# [4] = test system: Suncus murinus; conditions: subcutaneous; cited from earlier work
# [5] = test system: dogs; conditions: subcutaneous; cited from earlier work
# [6] = test system: ferrets; conditions: subcutaneous; cited from earlier work; remark: listed apart in the source
# [7] = test system: vagal afferent nerves (TRPV1) in the stomach; experiment: Nausea and vomiting induced by intravenous vasopressin infusion, behavioral emetic score; type: in vivo, dog; conditions: dogs, vasopressin 0.5 U/Kg iv over 20 minutes, one week after 250 ml of a 100 nM solution sprayed endoscopically; baseline 29.0±6.2; p=0.05
# Experimental: as §1, §2
compound,measurement,setting,value
C=C(C)[C@]12C[C@@H](C)[C@@]34O[C@](Cc5ccccc5)(O[C@@H]1[C@@H]3C=C(COC(=O)Cc1ccc(O)c(OC)c1)C[C@]1(O)C(=O)C(C)=C[C@@H]41)O2 [Resiniferatoxin],effect on acute and delayed cisplatin and apomorphine induced emesis,[1],inhibited
same,mean score of the emetic response with balloon distention,[2],11.7±4.2
same,body weight change,[3],minor weight loss
same,general health of dogs,[3],appeared healthy
same,emetic / anti-emetic properties,[4],initial emetic followed by anti-emetic properties
same,effect on acute and delayed cisplatin and apomorphine induced emesis,[5],inhibited
same,"effect on copper sulphate, whole body radiation and Loperamide induced emetic response",[6],blocked
same,mean score of the emetic response with vasopressin,[7],16.3±5
